From patent US20230062248A1, “METHODS FOR PREDICTING IXABEPILONE RESPONSIVENESS IN CANCER PATIENTS” (Allarity Therapeutics Europe ApS, priority 2020, published 2023)

System: breast cancer patients
Assay: Pathological complete remission (pCR) in breast cancer patients treated neoadjuvantly with ixabepilone, split by DRP prediction score (GSE41998)
Format: in vivo, human
Settings: pre-treatment biopsy
Experimental: An mRNA-based predictor of responsiveness to ixabepilone was developed according to the methods of the invention and applied to gene expression data prepared using clinical samples from breast cancer patients, which was downloaded from Gene Expression Omnibus under accession number GSE41998 (FIG. 1). The samples were diagnostic biopsies analyzed with Affymetrix GeneChips. All the genes listed in Table 2 were measured from clinical samples on the Affymetrix GeneChip and their mean expression subtracted from the mean of all the genes in Table 1. The difference (e.g., a difference score) was then compared to a difference score produced using measured levels of the sensitivity and resistance biomarkers of Tables 1 and 2 from a reference population consisting of 279 breast cancer patients participating in a clinical trial having two treatment arms ((1) ixabepilone and (2) paclitaxel treatment), producing a percentile score on a scale from 0 to 100. As part of the clinical trial, biopsy samples from breast cancer patients later treated neoadjuvantly with ixabepilone were collected prior to treatment. Patients' responses to ixabepilone were subsequently compared to predicted ixabepilone sensitivity using the methods disclosed herein. Patients with pathological complete remission (pCR) were predicted using the disclosed methods to be more sensitive to ixabepilone than patients with no pCR (No_pCR; FIG. 1).

Compound: C/C(=C\c1csc(C)n1)[C@@H]1C[C@@H]2O[C@]2(C)CCC[C@H](C)[C@H](O)[C@@H](C)C(=O)C(C)(C)[C@@H](O)CC(=O)N1 [ixabepilone, (1S,3S,7S,10R,11S,12S,16R)-7,11 dihydroxy-8,8,10,12,16-pentamethyl-3-[(1E)-1-methyl-2-(2-methyl-4-thiazolyl)ethenyl] 17-oxa-4-azabicyclo[14.1.0] heptadecane-5,9-dione]
- Non responders (no pCR), number of patients (DRP negative (<=50)): 52
- Responders (pCR), number of patients (DRP negative (<=50)): 8
- Non responders (no pCR), number of patients (DRP positive (>50)): 45
- Responders (pCR), number of patients (DRP positive (>50)): 27
